Common to all, as to type: biochemical
Test [1] addresses T1, monoacylglycerol lipase (MGL) (Homo sapiens, UniProt Q99685).
T1 sequence (Q99685 1-303): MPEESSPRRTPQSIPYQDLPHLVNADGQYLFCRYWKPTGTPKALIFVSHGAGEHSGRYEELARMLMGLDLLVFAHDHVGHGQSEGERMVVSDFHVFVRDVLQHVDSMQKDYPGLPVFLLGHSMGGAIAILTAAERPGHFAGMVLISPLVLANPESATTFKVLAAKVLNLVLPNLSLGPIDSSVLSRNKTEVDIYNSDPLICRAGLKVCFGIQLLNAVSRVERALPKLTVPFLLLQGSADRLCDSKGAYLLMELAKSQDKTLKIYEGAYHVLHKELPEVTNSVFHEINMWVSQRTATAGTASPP
Put plainly: MGL activity assay (Figure S1). Conditions: 100 µM (Figure S1). As to the method:
(§1) Supplementary file pone.0043023.s001.pdf: Figure S1 Effect of vehicle (open bar) and compound 16 (100 µM, closed bars) on the activity of NAAA, FAAH, MGL, and ASAH. ***, p<0.001, one-way ANOVA, n = 3. (PDF) Click here for additional data file.

Test [2] addresses T2, N-acylsphingosine amidohydrolase (ASAH) (Homo sapiens, UniProt Q13510).
T2 sequence (Q13510 22-395): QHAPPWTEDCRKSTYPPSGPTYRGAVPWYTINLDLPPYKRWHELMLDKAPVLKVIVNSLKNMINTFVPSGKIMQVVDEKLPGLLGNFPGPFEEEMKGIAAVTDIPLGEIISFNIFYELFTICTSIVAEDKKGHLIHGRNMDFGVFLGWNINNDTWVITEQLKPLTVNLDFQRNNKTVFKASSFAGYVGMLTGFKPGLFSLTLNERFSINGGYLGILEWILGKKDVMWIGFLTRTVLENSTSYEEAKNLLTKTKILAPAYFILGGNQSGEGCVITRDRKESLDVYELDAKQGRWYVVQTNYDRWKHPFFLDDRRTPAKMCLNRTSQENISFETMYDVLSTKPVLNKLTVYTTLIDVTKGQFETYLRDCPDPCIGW
Put plainly: ASAH activity assay (Figure S1). The note with it: 100 µM (Figure S1). As to the method: as §1

For test [3], the target named is T3, rat FAAH (Rattus norvegicus, UniProt P97612).
T3 construct: made in house; host or cells: HEK293 cells stably overexpressing rat FAAH (HEK293-rFAAH), a gift from D. Piomelli; crude cell extract
T3 sequence (P97612 1-579): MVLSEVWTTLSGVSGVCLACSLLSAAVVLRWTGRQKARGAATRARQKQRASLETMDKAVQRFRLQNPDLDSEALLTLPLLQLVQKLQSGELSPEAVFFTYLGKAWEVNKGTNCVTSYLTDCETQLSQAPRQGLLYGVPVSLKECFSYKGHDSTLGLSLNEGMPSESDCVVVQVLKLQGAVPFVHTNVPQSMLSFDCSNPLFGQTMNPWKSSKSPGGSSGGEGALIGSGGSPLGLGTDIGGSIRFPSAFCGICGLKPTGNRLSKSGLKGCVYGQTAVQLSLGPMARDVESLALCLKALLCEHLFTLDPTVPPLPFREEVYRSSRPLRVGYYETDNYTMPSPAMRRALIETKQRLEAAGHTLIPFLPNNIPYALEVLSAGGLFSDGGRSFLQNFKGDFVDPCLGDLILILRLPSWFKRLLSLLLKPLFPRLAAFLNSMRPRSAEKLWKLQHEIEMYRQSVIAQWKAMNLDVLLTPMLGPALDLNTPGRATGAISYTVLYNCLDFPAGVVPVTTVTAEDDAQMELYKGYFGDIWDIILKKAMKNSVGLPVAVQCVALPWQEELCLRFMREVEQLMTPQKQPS
Put plainly: FAAH enzymatic assay (recombinant rFAAH protein, LC/MS).
Description: HEK293-rNAAA or HEK293-rFAAH cells were harvested, washed with PBS, sonicated in 20 mM Tris-HCl (pH 7.5) containing 0.32 M sucrose, and centrifuged at 800 × g for 15 min at 4°C. The supernatants were collected and protein concentrations were measured by BCA protein assay kit (Pierce, Shanghai, China). […] The reactions were terminated by adding 0.2 mL methanol containing 1 nmol heptadecanoic acid and analyzed in LC/MS.
We use an Agilent 1200-LC system coupled to a 3200Q TRAP-MS detector equipped with an ESI interface (Agilent Technologies, Shanghai, China). […] The column temperature was set at 40°C. […] Mass spectrometer (MS) detection was ionized by positive-ion atmospheric pressure chemical ionization mode (APCI^+) and monitored in MRM mode. […] Quantifications were calculated at chromatographic peak areas by using Analyst® version 1.4.1. software (Applied Biosystems).

Here are results for 1 compound from article PMC3423427, “Design and Synthesis of Potent N-Acylethanolamine-hydrolyzing Acid Amidase (NAAA) Inhibitor as Anti-Inflammatory Compounds” (PLoS ONE, 2012).

Where only a bound is given, the exact number is not on record here.

Regarding `O=C(CCc1ccc(-c2ccccc2)cc1)N1CCCC1` [Compound 16, 1–(2–Biphenyl–4–yl)ethyl–carbonyl pyrrolidine], the “inhibitory effect on MGL” value in test [1] is on record as “no inhibitory effect”. Further, the “inhibitory effect on ASAH” value in test [2] was “no inhibitory effect”. Also, the half-inhibitory concentration (IC50) (as a rule, the concentration needed to halve the response being measured) in test [3] (IC50 ± S.E.M., triplicate, 25 µM anandamide, pH 8.0) was over 100 µM. Besides, the “reduction of FAAH activity” value in test [3] (at concentration of 100 µM) is recorded as “no more than 30%”.
